Test results published in patent US8785424B2, “ngCycloartanone derivatives with anticancer activity” (Pierre Fabre Medicament, priority 2009, dated 2014).
Structures can show the parent of a compound that is named as a salt.

Tested on: proteasome
Experiment: Cellular proteasome inhibition test: accumulation of 4Ub-Luc reporter (luciferase activity) in DLD-1 4Ub-Luc cell line
Type: cell-based, human
Settings: DLD-1 4Ub-Luc cells, 8 hours, epoxomicin = 100%
Experimental: Biological tests were carried out according to protocols described in the following articles: Ausseil F. et al. J. Biomol Screen. 2007, 12, 106-116 and Vandenberghe I. et al. Biochemical Pharmacology 2008, 76, 453-462.
In order to select novel proteasome inhibitor compounds, it is necessary to indirectly measure the activity of this proteasome within cells. To this end, we constructed a stable cell line, DLD-1 4Ub-Luc, arising from a human colon cancer cell line, which produces a chimeric reporter protein called 4Ub-Luc. This protein is a fusion between a 4-ubiquitin (4Ub) label and luciferase (Luc). This label is capable to direct every proteins that carry it toward the proteasome. The 4Ub-Luc protein is thus efficiently degraded by the proteasome, in contrast to the “wild” non-fused Luc protein. When the DLD-1 4Ub-Luc cell line is treated with a proteasome inhibitor, the fusion protein is much less efficiently degraded and accumulates in the cell. This accumulation is detected by an increase in luciferase activity in the treated extract compared to the extract from untreated cells. The control consists of verifying that the inhibitor has no effect on accumulation of the wild Luc protein produced by the stable DLD-1 RF cell line. For both cell lines and for each product an induction factor is determined for the product tested (or the reference) corresponding to the ratio between the luciferase activities measured in cells treated with this product (or the reference) and cells treated with solvent alone.
The product's activity is then defined by its relative induction factor, i.e., the ratio of its induction factor (IF % luminescence) to that of the reference molecule epoxomicin (IF=100%; see data presented in the table below).
Thus, the test established by Pierre-Fabre is a cellular test that has the advantage, compared to a purely enzymatic test, of detecting only products capable of penetrating the cell.
Two cell lines are used for this test: DLD-1 RF and DLD-1 4Ub-Luc. The culture medium used is as follows: • MEM • 5% fetal calf serum • 5 ml of penicillin-streptomycin • 2.5 ml of FUNGIZONE® (Amphotericin B) • 10 ml of […]
Day 1: Inoculate white 96-well culture-treated plates (PerkinElmer White ViewPlate, product no. 6005181) with 100 μl of 1·10^5 c/ml cell suspension per well. Incubate for 24 hours so that the cells adhere. On each plate five columns will be inoculated with DLD-1 4Ub-Luc and five others with DLD-1 RF according to diagram 1 below.
Day 2: Remove the medium by turning the plates upside down on cotton, and then carry out the treatment with the compounds of the invention, with solvent alone or with a reference compound such as epoxomicin. […]
The columns are paired (examples 2 and 8, 3 and 9, 4 and 10 and 5 and 11) and treated with the same compound. Columns 6 and 7 receive the experimental control, namely 0.1% DMSO in culture medium for wells B, C, D, and E of columns 6 and 7, and the positive control (10^−7 M epoxomicin) in wells F and G.
After incubation, turn the plate upside down on cotton to empty the wells, rinse with 50 μl of PBS to remove any trace of the cytotoxin tested and then add 50 μl of 5× passive lysis buffer (Promega, product no. E1941) diluted to ⅕ in water. Shake energetically using a plate shaker for 5 to 10 minutes at room temperature before freezing at −20° C.
Luciferase activity is measured using a Luciferase Assay System 10-Pack kit (Promega, product no. E1501).
On the day luciferase activity is to be measured, defrost the plates and wait until they have returned to room temperature. The optimal temperature for luciferase activity is 20-25° C.
Reconstitute the firefly luciferase substrate by defrosting the buffer and then adding 10 ml of buffer to the bottle containing the freeze-dried substrate. Wait until the solution is at room temperature before beginning the assay. […]

[1] = concentration tested 5 · 10^−6 M
[2] = concentration tested 5 · 10^−7 M
[3] = concentration tested 5 · 10^−6 M, hydrochloride
[4] = concentration tested 10^−5 M, hydrochloride
[5] = concentration tested 10^−6 M, hydrochloride

| SMILES | relative induction factor (IF % luminescence) versus epoxomicin [1] | relative induction factor (IF % luminescence) versus epoxomicin (concentration tested 10^−5 M) | relative induction factor (IF % luminescence) versus epoxomicin (concentration tested 10^−6 M) | relative induction factor (IF % luminescence) versus epoxomicin [2] | relative induction factor (IF % luminescence) versus epoxomicin [3] | relative induction factor (IF % luminescence) versus epoxomicin [4] | relative induction factor (IF % luminescence) versus epoxomicin [5] |
| --- | --- | --- | --- | --- | --- | --- | --- |
| C=C([C@@H](C)COC)C1(O)O[C@H]2C[C@@]3(C)C4CCC5[C@H](C)C(=O)C=C[C@@]56C[C@@]46CC[C@]3(C)[C@H]2[C@H](C)[C@H]1OC(C)=O (stereo partly drawn) [Compound 51, 16-deacetyl-26-methoxy-neoboutomellerone-hemiacetal] | 31% | 60% | 1% |  |  |  |  |
| C=C(C(=O)[C@H](OC(C)=O)[C@@H](C)[C@H]1[C@@H](OC(C)=O)C[C@@]2(C)C3CCC4[C@H](C)C(=O)C=C[C@@]45C[C@@]35CC[C@]12C)[C@@H](C)COC(=O)CNC(=O)OC(C)(C)C (stereo partly drawn) [Compound 56, Neoboutomellerone 26-N-Boc-glycinate] | 34% | 7% | 21% |  |  |  |  |
| C=C(C(=O)[C@H](O)[C@@H](C)[C@H]1[C@@H](OC(C)=O)C[C@@]2(C)C3CCC4[C@H](C)C(=O)C=C[C@@]45C[C@@]35CC[C@]12C)[C@@H](C)COC(=O)CNC(=O)OC(C)(C)C (stereo partly drawn) [Compound 58, 22-deacetyl-neoboutomellerone 26-N-Boc-glycinate] | 46% | 10% | 8% |  |  |  |  |
| C=C(C(=O)[C@H](OC(=O)CNC(=O)OC(C)(C)C)[C@@H](C)[C@H]1[C@@H](OC(C)=O)C[C@@]2(C)C3CCC4[C@H](C)C(=O)C=C[C@@]45C[C@@]35CC[C@]12C)[C@@H](C)COC(C)=O (stereo partly drawn) [Compound 60, 22-deacetyl-neoboutomellerone 22-(N-Boc-glycinate)-26-acetyl] | 4% | 2% | 71% | 76% |  |  |  |
| C=C(C(=O)[C@H](OC(=O)CCl)[C@@H](C)[C@H]1[C@@H](OC(C)=O)C[C@@]2(C)C3CCC4[C@H](C)C(=O)C=C[C@@]45C[C@@]35CC[C@]12C)[C@@H](C)COC(C)=O (stereo partly drawn) [Compound 61, 22-chloroacetyl-26-acetyl-neoboutomellerone] | 21% | 6% | 64% | 23% |  |  |  |
| C=C(C(=O)[C@H](OC(C)=O)[C@@H](C)[C@H]1[C@@H](OC(C)=O)C[C@@]2(C)C3CCC4[C@H](C)C(=O)C=C[C@@]45C[C@@]35CC[C@]12C)[C@@H](C)COC(=O)CN(C)C (stereo partly drawn) [Compound 62, Neoboutomellerone 26-N-dimethyl glycinate] | 49% | 7% | 11% |  |  |  |  |
| C=C(C(=O)[C@H](OC(C)=O)[C@@H](C)[C@H]1[C@@H](OC(C)=O)C[C@@]2(C)C3CCC4[C@H](C)C(=O)C=C[C@@]45C[C@@]35CC[C@]12C)[C@@H](C)COC(=O)CN(C)C (stereo partly drawn) [Compound 63, neoboutomellerone 26-N-dimethyl glycinate hydrochloride] |  |  |  | 66% | 11% | 3% | 50% |
| C=C(C(=O)[C@H](O)[C@@H](C)[C@H]1[C@@H](OC(C)=O)C[C@@]2(C)C3CCC4[C@H](C)C(=O)C=C[C@@]45C[C@@]35CC[C@]12C)[C@@H](C)COC(=O)CN(C)C (stereo partly drawn) [Compound 64, 22-deacetyl-neoboutomellerone 26-N-dimethyl glycinate] | 35% | 7% | 22% |  |  |  |  |
| C=C(C(=O)[C@H](O)[C@@H](C)[C@H]1[C@@H](OC(C)=O)C[C@@]2(C)C3CCC4[C@H](C)C(=O)C=C[C@@]45C[C@@]35CC[C@]12C)[C@@H](C)COC(=O)CN(C)C (stereo partly drawn) [Compound 65, 22-deacetyl-neoboutomellerone 26-N dimethyl glycinate hydrochloride] |  |  |  | 1% | 34% | 4% | 17% |
| C=C(C(=O)[C@H](O)[C@@H](C)[C@H]1[C@@H](OC(C)=O)C[C@@]2(C)[C@@H]3CC[C@H]4[C@H](C)C(=O)C=C[C@@]45C[C@@]35CC[C@]12C)[C@@H](C)COC(=O)CCN(CC)CC [Compound 66, 26-deacetyl-neoboutomellerone 26-N-diethyl-β-alaninate] | 9% | 2% | 13% |  |  |  |  |
| C=C(C(=O)[C@H](OC(C)=O)[C@@H](C)[C@H]1[C@@H](OC(C)=O)C[C@@]2(C)C3CCC4[C@H](C)C(=O)C=C[C@@]45C[C@@]35CC[C@]12C)[C@@H](C)COC(=O)CCC(=O)O (stereo partly drawn) [Compound 68, 26-succinate-neoboutomellerone] | 18% | 4% | 52% | 1% |  |  |  |
| C=C(C(=O)[C@H](O)[C@@H](C)[C@H]1[C@@H](OC(C)=O)C[C@@]2(C)C3CCC4[C@H](C)C(=O)C=C[C@@]45C[C@@]35CC[C@]12C)[C@@H](C)COC(=O)CCC(=O)O (stereo partly drawn) [Compound 71, 26-succinate-22-deacetyl-neoboutomellerone] | 11% | 4% | 62% | 6% |  |  |  |
| C=C(C(=O)[C@H](OC(=O)CCC(=O)O)[C@@H](C)[C@H]1[C@@H](OC(C)=O)C[C@@]2(C)C3CCC4[C@H](C)C(=O)C=C[C@@]45C[C@@]35CC[C@]12C)[C@@H](C)COC(C)=O (stereo partly drawn) [Compound 74, 22-deacetyl-22-succinate-26-acetyl-neoboutomellerone N-methylglucamine salt] | 14% | 2% | 60% |  |  |  |  |
| C=C(C(=O)[C@H](OC(C)=O)[C@@H](C)[C@H]1[C@@H](OC(C)=O)C[C@@]2(C)C3CCC4[C@H](C)C(=O)C=C[C@@]45C[C@@]35CC[C@]12C)[C@@H](C)COC1(C)OC2OC(COC(C)=O)C(OC(C)=O)C(OC(C)O)C2O1 (stereo partly drawn) [Compound 82, Neoboutomellerone 26-(2,3,4,6-tetraacetyl-glucosylate)] | 59% | 48% | 2% |  |  |  |  |
